The record followed here is US8859608B2, “Spiro amino compounds suitable for the treatment of inter alia sleep disorders and drug addiction” (Rottapharm Biotech S.R.L., priority 2009, dated 2014).

Structures are written as SMILES.

The assay concerns the target T1, human OX1 receptor (Homo sapiens, UniProt O43613).
T1 sequence (O43613 1-425): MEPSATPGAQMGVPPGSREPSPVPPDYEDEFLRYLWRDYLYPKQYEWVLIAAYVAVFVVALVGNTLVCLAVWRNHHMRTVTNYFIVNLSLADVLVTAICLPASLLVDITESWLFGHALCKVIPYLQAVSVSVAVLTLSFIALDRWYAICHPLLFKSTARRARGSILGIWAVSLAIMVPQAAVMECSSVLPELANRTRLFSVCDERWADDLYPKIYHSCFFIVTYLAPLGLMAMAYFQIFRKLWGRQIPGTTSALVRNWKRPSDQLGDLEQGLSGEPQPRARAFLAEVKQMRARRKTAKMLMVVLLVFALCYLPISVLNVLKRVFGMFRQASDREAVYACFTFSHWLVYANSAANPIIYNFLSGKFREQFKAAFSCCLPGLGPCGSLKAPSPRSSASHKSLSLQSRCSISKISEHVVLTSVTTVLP
As to the kind of experiment: FLIPR measurement of intracellular calcium, antagonistic activity at OX1. The following applies: pKb OX1, CHO cells with human recombinant OX1, activated with orexin-A 3 nM; 1 nM-1 μM range; modified Cheng Prusoff. A general note: A change in cytosolic calcium serves as a functional read-out for many receptors and channels.
Procedure: Thus the plate was loaded with the calcium dye (Fluo-4NW/probenecid in HBSS, Hepes 20 mM, pH 7,4; Invitrogen) at 37° C. for 60 min. Afterward the temperature was equilibrated at 22° C. for 15 min and the [Ca2+]i measured directly on the plate by using a fluorescent plate reader (CeliLux Perkin Elmer).
After 5 min CHO cells were activated with orexin-A, 3 nM while HEK-293 cells were activated with orexin-B, 10 nM.
The antagonistic activity has been expressed as pKb (co-logarithm of the apparent dissociation constant calculated by using the modified Cheng Prusoff equation).
As for `Cc1nc(C(=O)N2CCC3(CC3)C[C@H]2CNc2nc(F)cc(F)n2)c(-c2ccccc2)s1` [Compound 24, (S)-(5-(((4,6-difluoropyrimidin-2-yl)amino)methyl)-6-azaspiro[2.5]octan-6-yl)(2-methyl-5-phenylthiazol-4-yl)methanone], the Kb – broadly, the affinity of an antagonist, worked out from how it opposes an agonist – is 100 nM.

On to `Cc1nc(C(=O)N2CCC3(CC3)CC2CNc2ccc(Cl)cn2)c(-c2ccccc2)s1` (racemic) [Compound 4, (±) (5-((5-chloropyridin-2-ylamino)methyl)-6-azaspiro[2.5]octan-6-yl)(2-methyl-5-phenylthiazol-4-yl)methanone], for which the Kb is 25.1 nM.

On to `Cc1cccc(NCC2CC3(CCCC3)CCN2C(=O)c2nc(C)sc2-c2ccccc2)n1` (racemic) [Compound 54, (±)(2-methyl-5-phenylthiazol-4-yl)(7-(((6-methylpyridin-2-4amino)methyl)-8-azaspiro[4.5]decan-8-yl)methanone], for which the Kb was 63.1 nM.

As for `Cc1ccc(-c2ccccn2)c(C(=O)N2CCC3(CC3)C[C@H]2CNc2ccc(Cl)cn2)c1` [Compound 33, (S)-(5-(((5-chloropyridin-2-yl)amino)methyl)-6-azaspiro[2.5]octan-6-yl)(5-methyl-2-(pyridin-2-yl)phenyl)methanone], the Kb was 1.58 nM.

In the case of `Cc1ccc(-n2nccn2)c(C(=O)N2CCC3(CC3)CC2CNc2ccc(Cl)cn2)c1` (racemic) [Compound 11, (±)(5-((5-chloropyridin-2-ylamino)methyl)-6-azaspiro[2.5]octan-6-yl)(5-methyl-2-(2H-1,2,3-triazol-2-yl)phenyl)methanone], the Kb was 31.6 nM.

`O=C(c1ccccc1-c1ccccc1)N1CCC2(CC2)C[C@H]1CNc1ccc(Cl)cn1` [Compound 38, (S)-[1,1′-biphenyl]-2-yl(5-(((5-chloropyridin-2-yl)amino)methyl)-6-azaspiro[2.5]octan-6-yl)methanone]: the antagonist equilibrium constant (Kb) was 20 nM.

Consider `Cc1ccc(-c2cnccn2)c(C(=O)N2CCC3(CC3)C[C@H]2CNc2cccc(Cl)n2)c1` [Compound 42, (S)-(5-(((6-chloropyridin-2-yl)amino)methyl)-6-azaspiro[2.5]octan-6-yl)(5-methyl-2-(pyrazin-2-yl)phenyl)methanone], for which the Kb was 25.1 nM.

Regarding `Cc1nc(C(=O)N2CCC3(CC3)C[C@H]2CNc2cccc(F)n2)c(-c2ccccc2)s1` [Compound 25, (S)-(5-(((6-fluoropyridin-2-yl)amino)methyl)-6-azaspiro[2.5]octan-6-yl)(2-methyl-5-phenylthiazol-4-yl)methanone], the Kb was 39.8 nM.

On to `O=C(c1ccccc1-c1ncccn1)N1CCC2(CC2)C[C@H]1CNc1ccc(Cl)cn1` [Compound 40, (S)-(5-(((5-chloropyridin-2-yl)amino)methyl)-6-azaspiro[2.5]octan-6-yl)(2-(pyrimidin-2-yl)phenyl)methanone], for which the antagonist equilibrium constant (Kb) was 31.6 nM.

Turning to `Cc1ccc(-n2nccn2)c(C(=O)N2CCC3(CC3)C[C@H]2CNc2cccc(Cl)n2)c1` [Compound 19, (S)-(5-(((6-chloropyridin-2-yl)amino)methyl)-6-azaspiro[2.5]octan-6-yl)(5-methyl-2-(2H-1,2,3-triazol-2-yl)phenyl)methanone], the Kb is 126 nM.

With `Cc1ccc(-c2ncccn2)c(C(=O)N2CCC3(CC3)CC2CNc2ccc(Cl)cn2)c1` (racemic) [Compound 12, (±)(5-((5-chloropyridin-2-ylamino)methyl)-6-azaspiro[2.5]octan-6-yl)(5-methyl-2-(pyrimidin-2-yl)phenyl)methanone], the Kb is 50.1 nM.

As for `Cc1cnc(NC[C@@H]2CC3(CCN2C(=O)c2nc(C)sc2-c2ccccc2)CC3)nc1` [Compound 23, (S)-(2-methyl-5-phenylthiazol-4-yl)(5-(((5-methylpyrimidin-2-yl)amino)methyl)-6-azaspiro[2.5]octan-6-yl)methanone], the Kb was 50.1 nM.

On to `Cc1nc(C(=O)N2CCC3(CC3)C[C@H]2CNc2ccc(F)cn2)c(-c2ccccc2)s1` [Compound 16, (S)-(5-(((5-fluoropyridin-2-yl)amino)methyl)-6-azaspiro[2.5]octan-6-yl)(2-methyl-5-phenylthiazol-4-yl)methanone], for which the Kb is 63.1 nM.

Regarding `O=C(c1c(F)cccc1-c1ncccn1)N1CCC2(CC2)C[C@H]1CNc1ccc(Cl)cn1` [Compound 45, (S)-(5-(((5-chloropyridin-2-yl)amino)methyl)-6-azaspiro[2.5]octan-6-yl)(2-fluoro-6-(pyrimidin-2-yl)phenyl)methanone], the Kb was 10 nM.

As to `O=C(c1ccccc1-n1nccn1)N1CCC2(CC2)C[C@H]1CNc1ccc(Cl)cn1` [Compound 28, (S)-(2-(2H-1,2,3-triazol-2-yl)phenyl)(5-(((5-chloropyridin-2-yl)amino)methyl)-6-azaspiro[2.5]octan-6-yl)methanone], the Kb was 25.1 nM.

As for `Cc1cccc(NCC2CC3(CCN2C(=O)c2nc(C)sc2-c2ccccc2)CC3)n1` (single isomer, unassigned) [Compound 3, (2-methyl-5-phenylthiazol-4-yl)(5-((6-methylpyridin-2-ylamino)methyl)-6-azaspiro[2.5]octan-6-yl)methanone], the Kb is 39.8 nM.

In the case of `Cc1nc(C(=O)N2CCC3(CC3)CC2CNc2ccc(Cl)cn2)c(-c2ccc(F)cc2)s1` (racemic) [Compound 10, (±) (5-((5-chloropyridin-2-ylamino)methyl)-6-azaspiro[2.5]octan-6-yl)(5-(4-fluorophenyl)-2-methylthiazol-4-yl)methanone], the Kb was 39.8 nM.

As for `O=C(c1cc(F)ccc1-n1nccn1)N1CCC2(CC2)C[C@H]1CNc1ccc(Cl)cn1` [Compound 29, (S)-(5-(((5-chloropyridin-2-yl)amino)methyl)-6-azaspiro[2.5]octan-6-yl)(5-fluoro-2-(2H-1,2,3-triazol-2-yl)phenyl)methanone], the Kb was 31.6 nM.

For `Cc1ccc(-c2ncccn2)c(C(=O)N2CCC3(CC3)C[C@H]2CNc2ccc(C(F)(F)F)cn2)c1` [Compound 27, (S)-(5-methyl-2-(pyrimidin-2-yl)phenyl)(5-(((5-(trifluoromethyl)pyridin-2-yl)amino)methyl)-6-azaspiro[2.5]octan-6-yl)methanone], the Kb was 12.6 nM.

For `Cc1ccc(-n2nccn2)c(C(=O)N2CCC3(CC3)C[C@H]2CNc2cccc(C(F)(F)F)n2)c1` [Compound 20, (S)-(5-methyl-2-(2H-1,2,3-triazol-2-yl)phenyl)(5-(((6-(trifluoromethyl)pyridin-2-yl)amino)methyl)-6-azaspiro[2.5]octan-6-yl)methanone], the Kb is 50.1 nM.

`Cc1nc(C(=O)N2CCC3(CCCC3)CC2CNc2ccc(Cl)cn2)c(-c2ccccc2)s1` (racemic) [Compound 55, (±)(7-(((5-chloropyridin-2-yl)amino)methyl)-8-azaspiro[4.5]decan-8-yl)(2-methyl-5-phenylthiazol-4-yl)methanone]: the Kb is 39.8 nM.

Take `Cc1ccc(-c2ncccn2)c(C(=O)N2CCC3(CC3)C[C@H]2CNc2ccc(Cl)cn2)c1` (single isomer, unassigned) [Compound 13]: the Kb is 25.1 nM.

For the compound `O=C(c1cc(F)ccc1-c1ncccn1)N1CCC2(CC2)C[C@H]1CNc1ccc(Cl)cn1` [Compound 44, (S)-(5-(((5-chloropyridin-2-yl)amino)methyl)-6-azaspiro[2.5]octan-6-yl)(5-fluoro-2-(pyrimidin-2-yl)phenyl)methanone], the Kb is 15.8 nM.

Regarding `O=C(c1c(F)cccc1-c1ccccn1)N1CCC2(CC2)C[C@H]1CNc1ccc(Cl)cn1` [Compound 34, (S)-(5-(((5-chloropyridin-2-yl)amino)methyl)-6-azaspiro[2.5]octan-6-yl)(2-fluoro-6-(pyridin-2-yl)phenyl)methanone], the Kb was 20 nM.

In the case of `O=C(c1cc(F)ccc1-c1ccccn1)N1CCC2(CC2)C[C@H]1CNc1ccc(Cl)cn1` [Compound 32, (S)-(5-(((5-chloropyridin-2-yl)amino)methyl)-6-azaspiro[2.5]octan-6-yl)(5-fluoro-2-(pyridin-2-yl)phenyl)methanone], the Kb is 63.1 nM.

Take `Cc1ccc(-n2nccn2)c(C(=O)N2CCC3(CC3)C[C@H]2CNc2ccc(C(F)(F)F)cn2)c1` [Compound 26, (S)-(5-methyl-2-(2H-1,2,3-triazol-2-yl)phenyl)(5-(((5-(trifluoromethyl)pyridin-2-yl)amino)methyl)-6-azaspiro[2.5]octan-6-yl)methanone]: the Kb was 25.1 nM.

Regarding `Cc1ccc(-c2cnccn2)c(C(=O)N2CCC3(CC3)C[C@H]2CNc2cccc(C(F)(F)F)n2)c1` [Compound 43, (S)-(5-methyl-2-(pyrazin-2-yl)phenyl)(5-(((6-(trifluoromethyl)pyridin-2-yl)amino)methyl)-6-azaspiro[2.5]octan-6-yl)methanone], the Kb is 10 nM.

With `O=C(c1ccccc1-c1cnccn1)N1CCC2(CC2)C[C@H]1CNc1ccc(Cl)cn1` [Compound 30, (S)-(5-(((5-chloropyridin-2-yl)amino)methyl)-6-azaspiro[2.5]octan-6-yl)(2-(pyrazin-2-yl)phenyl)methanone], the Kb is 63.1 nM.

Turning to `Cc1ccnc(NC[C@@H]2CC3(CCN2C(=O)c2nc(C)sc2-c2ccccc2)CC3)n1` [Compound 21, (S)-(2-methyl-5-phenylthiazol-4-yl)(5-(((4-methylpyrimidin-2-yl)amino)methyl)-6-azaspiro[2.5]octan-6-yl)methanone], the Kb was 126 nM.
